# Laboratory results from article PMC6917776, “Discovery of a chemical probe for PRDM9” (Nature Communications, 2019).
# System: H3K4me3 at known PRDM9 binding loci and control TSS loci
# Test: ChIP-qPCR of H3K4me3 in PRDM9-transfected HEK293T cells
# Assay type: cell-based, human
# Settings: Replicate 1; for 2^-dCq (H3K4me3 ChIP relative to H3 ChIP): Figure 7 C, Antibody H3K4me3; for 2^-dCq: H3K4me3 ChIP normalised to H3; for dCq (IP-Input): H3K4me3 antibody
# Experimental: ChIP-qPCR assays were then conducted on known PRDM9 binding loci[26]. Ectopic expression of PRDM9^WT increased trimethylation of H3K4 (H3K4me3) at previously described PRDM9-specific intragenic and intergenic regions[26] (Fig. 7; Supplementary Fig. 12). […] The observed increases in H3K4me3 levels at intragenic and intergenic regions are therefore due directly to PRDM9 PR domain-dependent methylation activity, rather than through recruitment of other H3K4 methyltransferases or other indirect mechanisms.
# ChIP qPCR analyses of H3K4me3 methylation levels of known PRDM9-bound loci and control loci. […] Concentrations used (µM) are indicated below each plot. (a–d) represent reported loci of PRDM9 methylation; (e, f) are transcriptional start sites (TSSs) which are not known loci of PRDM9 methylation. Data are normalized to total H3 and are presented as the mean ± upper and lower limits from two replicates. Representative plots of two independent experiments are shown in this figure. The coordinates and the genomic features associated with the assayed loci are indicated above each plot. Left Tailed Student's t-tests were performed by comparing DMSO (0 µM) treated cells to compound treated cells that have been transfected with the same plasmids. *p-value < 0.05 and **p-value < 0.01. Note that here we show a representative of two independent experiments (mean ± s.d of technical replicates) for our ChIP-qPCR experiments. Data obtained using this technique are inherently noisy due to stochastic differences in gene activity/histone positioning. Data are thus typically presented as representative rather than averaged. Source data are provided as a Source Data file.
# HEK293T cells were transfected with 37.5 μg empty pcDNA3.1(+) vector (Invitrogen), or the same vector expressing either wild-type PRDM9 (PRDM9^WT) or a catalytically dead PRDM9 mutant (PRDM9^Mut) and 75 μL of Lipofectamine 2000 (Invitrogen) in 6 mL of Opti-MEM (GIBCO) for 48 h. […] ChIP assays were then performed as previously described. Briefly, cells were fixed in 1% formaldehyde and the fixation reaction was quenched in a final concentration of 0.1 M glycine. Cell pellets were first lysed in LB1 (50 mM HEPES-KOH pH 7.5, 140 mM NaCl, 1 mM EDTA, 10% Glycerol, 0.5% Igepal, 0.25% TritonX), washed once in LB2 Buffer (10 mM Tris-HCl pH 8, 200 mM NaCl, 1 mM EDTA, 0.5 mM EGTA) and finally sonicated in LB3 buffer (10 mM Tris-HCl pH 8, 100 mM NaCl, 1 mM EDTA, 0.5 mM EGTA, 0.1% Sodium deoxycholate, 0.5% N-laurosylsarcosine) using a bioruptor (Diagenode). Thereafter, 50 μg of chromatin was subjected to ChIP using the following antibodies purchased from Abcam: α-H3K4me3 (1:200, ab8580, lot:GR3207339-1) and α-H3 (1:250, ab1791, lot:GR300978-4). After extensive washing in RIPA wash buffer (50 mM HEPES-KOH pH 7.6, 100 mM LiCl, 1 mM EDTA, 1% Igepal, 0.7% Sodium Deoxycholate), DNA was eluted from beads. The eluted DNA was treated with RNase A and Proteinase K and purified using the QIAGEN PCR purification kit. qPCR was then carried out targeting the indicated loci (Supplementary Table 3). Upper and lower limits were defined by |2^−(dCq±s) − 2^−(∆Cq)|, where s = √((Standard deviation of Input Cq)^2 + (Standard deviation of Target Cq)^2). […]
# formation. ChIP qPCR analyses of H3K4me3 methylation levels at known PRDM9-bound and control loci. Cells transfected with empty vector (negative control) or vectors overexpressing either wild-type PRDM9 (PRDM9 WT) or catalytically dead PRDM9 (PRDM9 MUT) were […]
# Panels a-d represent reported loci of […]
# (1 picture or pasted object on this page, not shown here)
# PRDM9 methylation; e-f are TSSs which are not known sites of PRDM9 methylation. Data are normalized to total H3 and are presented as the mean ± upper and lower limits from two […]
# [1] = chr2:40281930-40282015 Intragenic (SLC8A1-AS1), Empty Vector
# [2] = chr2:40281930-40282015 Intragenic (SLC8A1-AS1), PRDM9
# [3] = chr2:40281930-40282015 Intragenic (SLC8A1-AS1), PRDM9_Cat.Dead
# [4] = chr2:128811847-128811944 (Intergenic), Empty Vector
# [5] = chr2:128811847-128811944 (Intergenic), PRDM9
# [6] = chr2:128811847-128811944 (Intergenic), PRDM9_Cat.Dead
# [7] = chr3:165514798-165514911 Intragenic (BCHE), Empty Vector
# [8] = chr3:165514798-165514911 Intragenic (BCHE), PRDM9
# [9] = chr3:165514798-165514911 Intragenic (BCHE), PRDM9_Cat.Dead
# [10] = chr8:49932778-49932856 (Intergenic), Empty Vector
structure (smiles),measurement,setting,value
COc1cc(OC)cc(-c2noc(N3CCN(C)C4(CCN(c5ccnc(C)c5)CC4)C3)n2)c1 [MRK-740],2^-dCq (H3K4me3 ChIP relative to H3 ChIP),"chr2:40281930-40282015 Intragenic (SLC8A1-AS1), Plasmid Empty Vector, Drug Conc. 2.5",0.4152
same,2^-dCq (H3K4me3 ChIP relative to H3 ChIP),"chr2:40281930-40282015 Intragenic (SLC8A1-AS1), Plasmid Empty Vector, Drug Conc. 5",0.3238
same,2^-dCq (H3K4me3 ChIP relative to H3 ChIP),"chr2:40281930-40282015 Intragenic (SLC8A1-AS1), Plasmid Empty Vector, Drug Conc. 10",0.507
same,2^-dCq (H3K4me3 ChIP relative to H3 ChIP),"chr2:40281930-40282015 Intragenic (SLC8A1-AS1), Plasmid PRDM9WT, Drug Conc. 2.5",3.2145
same,2^-dCq (H3K4me3 ChIP relative to H3 ChIP),"chr2:40281930-40282015 Intragenic (SLC8A1-AS1), Plasmid PRDM9WT, Drug Conc. 5",2.572
same,2^-dCq (H3K4me3 ChIP relative to H3 ChIP),"chr2:40281930-40282015 Intragenic (SLC8A1-AS1), Plasmid PRDM9WT, Drug Conc. 10",2.028
same,2^-dCq,[1],0.4145
same,2^-dCq,[2],3.496
same,2^-dCq,[3],0.3605
same,2^-dCq,[4],0.4852
same,2^-dCq,[5],2.263
same,2^-dCq,[6],0.5507
same,2^-dCq,[7],0.3297
same,2^-dCq,[8],5.1
same,2^-dCq,[9],0.2515
same,2^-dCq,[10],0.5103
same,2^-dCq,"chr8:49932778-49932856 (Intergenic), PRDM9",4.604
same,2^-dCq,"chr8:49932778-49932856 (Intergenic), PRDM9_Cat.Dead",0.4888
same,2^-dCq,"chr12:6643945-6644023 TSS (GAPDH), Empty Vector",45.392
same,2^-dCq,"chr12:6643945-6644023 TSS (GAPDH), PRDM9",42.4818
same,2^-dCq,"chr12:6643945-6644023 TSS (GAPDH), PRDM9_Cat.Dead",88.4248
same,2^-dCq,"chr19:8510167-8510261 TSS (HNRNPM), Empty Vector",50.4703
same,2^-dCq,"chr19:8510167-8510261 TSS (HNRNPM), PRDM9",42.5896
same,2^-dCq,"chr19:8510167-8510261 TSS (HNRNPM), PRDM9_Cat.Dead",88.2214
same,dCq (IP-Input),[1],1.27
same,dCq (IP-Input),[2],-1.806
same,dCq (IP-Input),[3],1.472
same,dCq (IP-Input),[4],1.0432
same,dCq (IP-Input),[5],-1.178
same,dCq (IP-Input),[6],0.8606
same,dCq (IP-Input),[7],1.601
same,dCq (IP-Input),[8],-2.351
same,dCq (IP-Input),[9],1.992
same,dCq (IP-Input),[10],0.9707
